This note sets out measurements from patent publication US11835532B2, “Green concentrated reagent for hemotology systems” (priority 2018, dated 2023).

The structures appear in SMILES notation.

A short description of this series: Response of test reagent pools to osmolality, conductivity and pH adjusters. The series is classed as physicochemical. Here is the method: Assays were performed to characterize the response of the test reagents according to Table 2 to adjustments targeting changes to the pH, osmolality and conductivity of the reagent test pools.
Each of the test pools were adjusted for osmolality and conductivity with different chemicals, for example, sodium chloride, sodium sulfate, potassium sulfate, potassium bisulfate, imidazole and sodium phosphate monobasic. Adjusting for osmolality or conductivity parameters impacts all three parameters of pH, conductivity and osmolality.
Variation of pH, conductivity and osmolality was observed by adding increasing amounts of each adjuster to a test reagent pool. Amounts of each adjuster to achieve target midpoint were established. The target pH, osmolality and conductivity were pH 7.02-7.20, target osmolality 315-360 mOsm/Kg, and target conductivity 19.05-20.00 mS/cm.
All pH, conductivity and osmolality adjusters functioned as expected with no precipitation.

[1] abbreviates: osmolality and conductivity adjuster added to working concentration reagent.
The mark [2] stands for this setting: pH adjuster added to working concentration reagent.

`O=S(=O)([O-])[O-].[Na+].[Na+]` [Sodium Sulfate]: under setting [1], the “▴ Conductivity” value is “+0.88 mS/cm/gm”, the “▴ Osmolality” value is “+14.1 mOsm/kg/gm” and the “▴ pH/gm” value is reported as “+0.01”.

With `Cl` [6N Hydrochloric Acid], under setting [2], the “Osmolality change per gram of adjuster” value is reported as “+7.0 mOsm/kg/gm”, the “▴ Conductivity” value is “+0.33 mS/cm/gm” and the “▴ pH/gm” value was −0.16.

As for `c1c[nH]cn1` [Imidazole], under setting [2], the “Osmolality change per gram of adjuster” value is on record as “+24.9 mOsm/kg/gm”, the “▴ Conductivity” value is “+0.28 mS/cm/gm” and the “▴ pH/gm” value is “+0.21”.

`[Na+].[OH-]` [50% Sodium Hydroxide]: under setting [2], the “Osmolality change per gram of adjuster” value is listed as “+13.7 mOsm/kg/gm”, the “▴ Conductivity” value was “+0.38 mS/cm/gm” and the “▴ pH/gm” value is recorded as “+0.39”.

On to `[Cl-].[Na+]` [Sodium Chloride], for which, under setting [1], the “▴ Conductivity” value is “+1.61 mS/cm/gm”, the “▴ Osmolality” value is on record as “+29.2 mOsm/kg/gm” and the “▴ pH/gm” value was found to be 0.00.

On to `O=P([O-])(O)O.[Na+]` [Sodium Phosphate Mono], for which, under setting [2], the “Osmolality change per gram of adjuster” value was “+12.0 mOsm/kg/gm”, the “▴ Conductivity” value was “+0.46 mS/cm/gm” and the “▴ pH/gm” value is on record as −0.14.

Take `O=S(=O)([O-])[O-].[K+].[K+]` [Potassium Sulfate]: under setting [1], the “▴ Conductivity” value was “+1.07 mS/cm/gm”, the “▴ Osmolality” value was “+11.9 mOsm/kg/gm” and the “▴ pH/gm” value is “+0.02”.
